Reference: US20070249620A1, “Urea Derivative” (priority 2004, published 2007)

What was measured:
[1] = target: T1, mouse DGAT1 (Mus musculus, UniProt Q9Z2A7); assay: DGAT1 inhibitory effect test (microsome fraction, [14C]-oleoyl-CoA, triglyceride radioactivity by TLC); assay type: biochemical; conditions: 0.5 h; concentration of the test compound 0.1 μg/ml; mouse DGAT1 microsomes, 23° C., 30 minutes; read-out: Inhibitory ratio
T1 construct: made in house; host or cells: insect cells (High Five, Sf9, Sf21, etc.), baculovirus expression system (Invitrogen)
T1 sequence (Q9Z2A7 1-498): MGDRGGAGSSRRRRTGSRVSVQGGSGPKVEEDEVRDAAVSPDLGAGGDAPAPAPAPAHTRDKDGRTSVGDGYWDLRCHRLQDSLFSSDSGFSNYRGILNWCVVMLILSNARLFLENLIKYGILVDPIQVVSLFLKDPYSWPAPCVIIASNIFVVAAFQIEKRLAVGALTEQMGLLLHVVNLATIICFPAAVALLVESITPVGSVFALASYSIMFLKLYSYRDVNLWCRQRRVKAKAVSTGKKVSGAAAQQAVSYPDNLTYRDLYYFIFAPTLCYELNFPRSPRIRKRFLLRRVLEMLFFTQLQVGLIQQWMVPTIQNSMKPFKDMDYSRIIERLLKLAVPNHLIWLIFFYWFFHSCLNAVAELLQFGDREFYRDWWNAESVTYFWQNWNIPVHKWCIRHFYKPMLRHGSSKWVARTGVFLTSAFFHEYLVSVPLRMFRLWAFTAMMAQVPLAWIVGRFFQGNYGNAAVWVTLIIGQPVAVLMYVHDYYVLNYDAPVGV
In short: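 Baculovirus-expressed mouse DGAT1 insect-cell microsomes (10 μg) were incubated 30 min at 23 °C, pH 8.0, with 0.5 mM 1,2-dioleoyl-sn-glycerol, 30 μM [14C]-oleoyl-CoA and 0.5% Triton X-100. [14C]-triglyceride was quantified after heptane extraction and TLC. Percent inhibition was taken against vehicle control, with 0-min background subtracted.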

inhibition at 0.1 µg/mL [1] [%]	melting point [°C]	Structure (SMILES)
≥ 50	202 to 203	CCOc1ccccc1NC(=O)Nc1ccc(N2CCN(C(=O)Nc3ccc(OC)cc3C)CC2)cc1 [Example 110, 4-{4-[3-(2-ethoxy-phenyl)-ureido]-phenyl}-piperazine-1-carboxylic acid (4-methoxy-2-methyl-phenyl)-amide]
≥ 50	108 to 110	CCOc1cccc(NC(=O)Nc2ccc(N3CCN(C(=O)Nc4ccc(OCCO)cc4C(F)(F)F)CC3)cc2)c1 [Example 215, 4-{4-[3-(3-ethoxy-phenyl)-ureido]-phenyl}-piperazine-1-carboxylic acid [4-(2-hydroxy-ethoxy)-2-trifluoromethyl-phenyl]-amide]
≥ 50	177 to 179	CCOc1ccccc1NC(=O)Nc1ccc(N2CCN(C(=O)Nc3c(F)cccc3C(F)(F)F)CC2)nc1 [Example 143, 4-{5-[3-(2-ethoxy-phenyl)-ureido]-pyridin-2-yl}-piperazine-1-carboxylic acid (2-fluoro-6-trifluoromethyl-phenyl)-amide]
≥ 50	134 to 139	CCOc1cccc(NC(=O)Nc2ccc3c(c2)CCN(C(=O)Nc2ccc(OCC(O)CO)cc2Cl)C3)c1 (centres unmarked) [Example 291, 6-[3-(3-ethoxy-phenyl)-ureido]-3,4-dihydro-1H-isoquinoline-2-carboxylic acid [2-chloro-4-(2,3-dihydroxy-propoxy)-phenyl]-amide]
≥ 50	135 to 137	CCOc1ccc(Cl)cc1NC(=O)Nc1ccc(N2CCN(C(=O)Nc3c(Cl)cccc3Cl)CC2)cc1 [Example 135, 4-{4-[3-(5-chloro-2-ethoxy-phenyl)-ureido]-phenyl}-piperazine-1-carboxylic acid (2,6-dichloro-phenyl)-amide]
≥ 50	210	CC(C)c1ccc(NC(=O)Nc2ccc(N3CCN(C(=O)OC(C)(C)C)CC3)cc2)cc1 [Example 22, 4-{4-[3-(4-isopropyl-phenyl)-ureido]-phenyl}-piperazine-1-carboxylic acid tert-butyl ester]
≥ 50	170 to 172	CCOc1ccccc1NC(=O)Nc1ccc(N2CCN(C(=O)Nc3c(Cl)cccc3Cl)CC2)nc1 [Example 144, 4-{5-[3-(2-ethoxy-phenyl)-ureido]-pyridin-2-yl}-piperazine-1-carboxylic acid (2,6-dichloro-phenyl)-amide]
≥ 50	174 to 176	COc1ccc(C)cc1NC(=O)Nc1ccc(N2CCN(C(=O)Nc3ccc(OCCO)cc3C)CC2)cc1 [Example 208, 4-{4-[3-(2-methoxy-5-methyl-phenyl)-ureido]-phenyl}-piperazine-1-carboxylic acid [4-(2-hydroxy-ethoxy)-2-methyl-phenyl]-amide]
≥ 50	157 to 159	CCOc1ccc(C)cc1NC(=O)Nc1ccc(N2CCN(C(=O)Nc3c(C)cccc3Cl)CC2)cc1 [Example 85, 4-{4-[3-(2-ethoxy-5-methyl-phenyl)-ureido]-phenyl}-piperazine-1-carboxylic acid (2-chloro-6-methyl-phenyl)-amide]
≥ 50	136 to 137	CCOc1ccccc1NC(=O)Nc1ccc(N2CCN(C(=O)Nc3ccc(C)cc3Cl)CC2)nc1 [Example 146, 4-{5-[3-(2-ethoxy-phenyl)-ureido]-pyridin-2-yl}-piperazine-1-carboxylic acid (2-chloro-4-methyl-phenyl)-amide]
≥ 50	158 to 161	COc1ccccc1NC(=O)Nc1ccc(C2CCN(C(=O)Nc3ccc(OCC(O)CO)cc3Cl)CC2)cc1 (centres unmarked) [Example 288, 4-{4-[3-(2-methoxy-phenyl)-ureido]-phenyl}-piperidine-1-carboxylic acid [2-chloro-4-(2,3-dihydroxy-propoxy)-phenyl]-amide]
≥ 50	164 to 167	O=C(Nc1ccc2c(c1)CCN(C(=O)Nc1ccc(OCC(O)CO)cc1Cl)C2)Nc1ccccc1F (centres unmarked) [Example 290, 6-[3-(2-fluoro-phenyl)-ureido]-3,4-dihydro-1H-isoquinoline-2-carboxylic acid [2-chloro-4-(2,3-dihydroxy-propoxy)-phenyl]-amide]
≥ 50	217 to 219	CCc1ccccc1NC(=O)Nc1ccc(N2CCN(C(=O)Nc3c(C)cccc3Cl)CC2)cc1 [Example 128, 4-{4-[3-(2-ethyl-phenyl)-ureido]-phenyl}-piperazine-1-carboxylic acid (2-chloro-6-methyl-phenyl)-amide]
≥ 50	216 to 218	COc1ccc(Cl)cc1NC(=O)Nc1ccc(N2CCN(C(=O)Nc3c(C)cccc3C)CC2)cc1 [Example 114, 4-{4-[3-(5-chloro-2-methoxy-phenyl)-ureido]-phenyl}-piperazine-1-carboxylic acid (2,6-dimethyl-phenyl)-amide]
≥ 50	155 to 157	COc1ccc(C)cc1NC(=O)Nc1ccc(N2CCN(C(=O)Nc3ccc(NC(C)=O)cc3Cl)CC2)cc1 [Example 169, 4-{4-[3-(2-methoxy-5-methyl-phenyl)-ureido]-phenyl}-piperazine-1-carboxylic acid (4-acetylamino-2-chloro-phenyl)-amide]
≥ 50	118 to 120	COc1ccccc1NC(=O)Nc1ccc(N2CCN(C(=O)Nc3ccc(OCCO)cc3C(F)(F)F)CC2)cc1 [Example 217, 4-{4-[3-(2-methoxy-phenyl)-ureido]-phenyl}-piperazine-1-carboxylic acid [4-(2-hydroxy-ethoxy)-2-trifluoromethyl-phenyl]-amide]
≥ 50	199 to 200	COc1ccc(C)cc1NC(=O)Nc1ccc(N2CCN(C(=O)Oc3ccc(CC(=O)O)cc3Cl)CC2)cc1 [Example 394, 4-{4-[3-(2-methoxy-5-methyl-phenyl)-ureido]-phenyl}-piperazine-1-carboxylic acid 4-carboxymethyl-2-chloro-phenyl ester]
≥ 50	209 to 211	COc1ccc(C)cc1NC(=O)Nc1ccc(N2CCN(C(=O)Nc3ncccc3C)CC2)cc1 [Example 294, 4-{4-[3-(2-methoxy-5-methyl-phenyl)-ureido]-phenyl}-piperazine-1-carboxylic acid (3-methyl-pyridin-2-yl)-amide]
≥ 50	149 to 151	COc1ccc(C)cc1NC(=O)Nc1ccc(N2CCN(C(=O)Nc3ccc(Br)cc3C#N)CC2)cc1 [Example 171, 4-{4-[3-(2-methoxy-5-methyl-phenyl)-ureido]-phenyl}-piperazine-1-carboxylic acid (4-bromo-2-cyano-phenyl)-amide]
≥ 50	159 to 160	COc1ccc(C)cc1NC(=O)Nc1ccc(N2CCN(C(=O)Nc3c(C)cccc3C(=O)O)CC2)cc1 [Example 179, 2-[(4-{4-[3-(2-methoxy-5-methyl-phenyl)-ureido]-phenyl}-piperazine-1-carbonyl)-amino]-3-methyl-benzoic acid]
≥ 50	191 to 193	COc1cccc(NC(=O)Nc2ccc(N3CCN(C(=O)Nc4ncccc4C)CC3)cc2)c1 [Example 303, 4-{4-[3-(3-methoxy-phenyl)-ureido]-phenyl}-piperazine-1-carboxylic acid (3-methyl-pyridin-2-yl)-amide]
≥ 50	153 to 155	CCOc1ccc(F)cc1NC(=O)Nc1ccc(N2CCN(C(=O)Nc3c(F)cccc3C(F)(F)F)CC2)cc1 [Example 93, 4-{4-[3-(2-ethoxy-5-fluoro-phenyl)-ureido]-phenyl}-piperazine-1-carboxylic acid (2-fluoro-6-trifluoromethyl-phenyl)-amide]
≥ 50	124 to 126	CCOc1ccc(Cl)cc1NC(=O)Nc1ccc(N2CCN(C(=O)Nc3ccc(C)cc3Cl)CC2)cc1 [Example 107, 4-{4-[3-(5-chloro-2-ethoxy-phenyl)-ureido]-phenyl}-piperazine-1-carboxylic acid (2-chloro-4-methyl-phenyl)-amide]
≥ 50	103 to 107	COc1ccccc1NC(=O)Nc1ccc(C2=CCN(C(=O)Nc3ccc(OCC(O)CO)cc3Cl)CC2)cc1 (centres unmarked) [Example 286, 4-{4-[3-(2-methoxy-phenyl)-ureido]-phenyl}-3,6-dihydro-2H-pyridine-1-carboxylic acid [2-chloro-4-(2,3-dihydroxy-propoxy)-phenyl]-amide]
≥ 50	219 to 220	O=C(Nc1ccc(N2CCN(C(=O)Nc3ccc(OCCO)cc3C(F)(F)F)CC2)cc1)Nc1ccccc1F [Example 211, 4-{4-[3-(2-fluoro-phenyl)-ureido]-phenyl}-piperazine-1-carboxylic acid [4-(2-hydroxy-ethoxy)-2-trifluoromethyl-phenyl]-amide]
